Experimental findings from US20260176320A1, “MODULATORS OF G-PROTEIN COUPLED RECEPTORS” (priority 2018, published 2026) are described below.

For assay [1], the target named is T1, GLP-1R (Homo sapiens, UniProt P43220). Briefly: HitHunter cAMP assay (GLP-1R). It is filed as cell-based. To be noted: cAMP; for Emax: read-out: (Emax) GLP-1R. In outline: (§1)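 Suspension cells (10,000/well) in HBSS with 10 mM HEPES, 625 μM IBMX, 0.2% BSA exposed to 22-point 2-fold agonist series in duplicate for 30 min at room temperature. cAMP measured by antibody immunocompetition with overnight development, luminescence read-out.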
T1 sequence (P43220 24-463): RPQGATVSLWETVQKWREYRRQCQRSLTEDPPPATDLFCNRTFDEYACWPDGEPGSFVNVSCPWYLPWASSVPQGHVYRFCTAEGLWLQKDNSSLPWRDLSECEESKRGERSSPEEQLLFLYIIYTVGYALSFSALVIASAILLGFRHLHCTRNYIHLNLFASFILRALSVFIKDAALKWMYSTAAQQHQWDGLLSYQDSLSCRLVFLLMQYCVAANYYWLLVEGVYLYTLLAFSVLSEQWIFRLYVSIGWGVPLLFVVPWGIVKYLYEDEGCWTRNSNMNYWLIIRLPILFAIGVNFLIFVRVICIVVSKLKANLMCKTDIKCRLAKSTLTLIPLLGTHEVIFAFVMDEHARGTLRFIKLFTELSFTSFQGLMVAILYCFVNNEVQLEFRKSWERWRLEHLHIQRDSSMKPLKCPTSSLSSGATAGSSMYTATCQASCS

For assay [2], the target named is T2, GIP-R (Homo sapiens, UniProt P48546).
T2 sequence (P48546 22-466): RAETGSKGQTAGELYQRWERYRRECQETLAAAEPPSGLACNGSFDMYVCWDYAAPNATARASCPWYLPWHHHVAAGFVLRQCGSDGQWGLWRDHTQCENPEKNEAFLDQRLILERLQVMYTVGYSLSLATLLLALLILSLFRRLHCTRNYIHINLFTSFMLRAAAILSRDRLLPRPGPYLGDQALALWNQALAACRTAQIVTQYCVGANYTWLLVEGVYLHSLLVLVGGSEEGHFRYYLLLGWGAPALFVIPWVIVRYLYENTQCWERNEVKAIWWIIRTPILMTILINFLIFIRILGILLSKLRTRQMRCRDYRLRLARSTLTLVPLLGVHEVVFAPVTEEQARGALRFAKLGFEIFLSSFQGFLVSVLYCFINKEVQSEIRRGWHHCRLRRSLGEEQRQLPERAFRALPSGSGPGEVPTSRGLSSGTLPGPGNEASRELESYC
The assay is described as follows: HitHunter cAMP assay (GIP-R). It counts as cell-based. To be noted: cAMP; for Emax: read-out: (Emax) GIP-R. In outline: as §1
(Changes in cAMP serve as a functional read-out for many G protein-coupled receptors.)

Assay [3] relates to mice. The assay is described as follows: Glucose tolerance test (GTT). It counts as in vivo, mouse. To be noted: 24 h GTT, s.c., percent of vehicle. As to the method:
Freestyle Lite glucometer and strips; compounds to be tested; sterilized glucose solution 200 mg/ml.
Compounds were diluted in PBS from the 1 mM DMSO stocks right before injection. Body weight and baseline blood glucose level for each mouse were measured. Tails were snipped using sterile scissors; blood from tails was used to measure glucose. For 0.25 h GTT, mice were fasted for 5-6 h and injected with compound subcutaneously 15 mins before glucose injection. For 4 h GTT, mice were fasted O/N for 16 h and injected with compound subcutaneously 4 h before glucose injection. For 16 h GTT, mice were injected with compound subcutaneously 16 h before glucose injection; food was removed at the same time. For 24 h GTT, mice were injected with compound subcutaneously 24 h before glucose injection; food was removed 5-6 h before glucose injection. 20% glucose in water was prepared; the solution was sterilized by 0.2 μm-filtration. An intraperitoneal injection of glucose (2 g/kg) was given to the mouse. Continued to take blood samples from the tail. Blood glucose was measured at 10, 20, 30, 40, 60, 90, and 120 minutes after glucose injection. Between each of these time points, the mouse was returned to its cage and monitored (at least 6 replicate mice were used for each time-point). The average glucose measurements were plotted as a function of time and the area under the curve (AUC) was determined.

In assay [4] the target is T1, GLP-1R. The assay is described as follows: PathHunter β-arrestin assay. It is filed as cell-based. In a few lines: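 Cells (5,000/well) plated overnight, then exposed to a 22-point 2-fold agonist dilution series in medium with 0.2% BSA for 90 min at 37 °C, 5% CO2. PathHunter detection reagent added; after 3 h at room temperature in the dark, luminescence read.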
The mark [5] stands for this setting: Table 3, read-out: EC50 GLP-1R/nM.
Where [6] appears, read: Table 3A, read-out: EC50 GLP-1R/nM.
[7] abbreviates: Table 3, read-out: EC50 GIP-R/nM.
[8] abbreviates: Table 3A, read-out: EC50 GIP-R/nM.
[9] abbreviates: PathHunter β-arrestin assay, read-out: β-arrestin activity EC50.

Molecules are shown by their SMILES. Like-named read-outs stand apart in the source and are kept apart here. Some results are limits rather than exact numbers.

In the case of `CCCCCCCCCCCCCCCC(=O)N[C@@H](CCC(=O)NCCCC[C@H](NC(=O)[C@H](CO)NC(=O)[C@@H]1CCCN1C(=O)[C@@H]1CCCN1C(=O)[C@@H]1CCCN1C(=O)[C@H](C)NC(=O)CNC(=O)[C@H](CO)NC(=O)[C@H](CO)NC(=O)[C@@H]1CCCN1C(=O)CNC(=O)CNC(=O)[C@H](C)NC(=O)[C@H](CC(C)C)NC(=O)[C@H](CC(C)C)NC(=O)[C@H](Cc1c[nH]c2ccccc12)NC(=O)[C@H](CC(N)=O)NC(=O)[C@@H](NC(=O)[C@H](Cc1ccccc1)NC(=O)[C@H](CCC(=O)O)NC(=O)C(C)(C)NC(=O)[C@H](C)NC(=O)[C@H](C)NC(=O)[C@H](CCC(N)=O)NC(=O)[C@H](CCCCN)NC(=O)[C@H](CC(=O)O)NC(=O)[C@H](CC(C)C)NC(=O)[C@H](Cc1ccc(O)cc1)NC(=O)[C@@H](NC(=O)[C@H](CO)NC(=O)[C@H](Cc1ccc(O)cc1)NC(=O)[C@H](CC(=O)O)NC(=O)[C@H](CO)NC(=O)[C@@H](NC(=O)[C@H](Cc1ccccc1)NC(=O)[C@@H](NC(=O)CNC(=O)[C@H](CCC(=O)O)NC(=O)CSCC(=O)N1CCNC1=O)[C@@H](C)O)[C@@H](C)O)[C@@H](C)CC)C(C)C)C(N)=O)C(=O)O` [Compound 98], the Emax in assay [1] (Table 3) and in assay [1] (Table 3A) was 96% throughout. Also, the EC50 in assay [1] (setting [5]) was 0.1 to 1 nM; in assay [1] (setting [6]), 0.1 to 1 nM; in assay [2] (setting [7]), above 1000 nM; in assay [2] (setting [8]) it was above 1000 nM; in assay [4] (setting [9]), above 1000 nM. For the same compound, the Emax – broadly, the greatest response seen or fitted, relative to the assay's reference – at 1 µM in assay [2] (read-out: (Emax) GIP-R at 1 μM, Table 3, at 1 μM) was below 5%. In addition, the AUC score in assay [3] (dose range 5.1-15 nmol/kg) is recorded as 2 (AUC score 2 = 26-50%).

Consider `CCCCCCCCCCCCCCCC(=O)N[C@@H](CCC(=O)NCCCC[C@H](NC(=O)[C@H](CO)NC(=O)[C@@H]1CCCN1C(=O)[C@@H]1CCCN1C(=O)[C@@H]1CCCN1C(=O)[C@H](C)NC(=O)CNC(=O)[C@H](CO)NC(=O)[C@H](CO)NC(=O)[C@@H]1CCCN1C(=O)CNC(=O)CNC(=O)[C@H](C)NC(=O)[C@H](CC(C)C)NC(=O)[C@H](CC(C)C)NC(=O)[C@H](Cc1c[nH]c2ccccc12)NC(=O)[C@H](CC(N)=O)NC(=O)[C@@H](NC(=O)[C@H](Cc1ccccc1)NC(=O)[C@H](CCC(=O)O)NC(=O)C(C)(C)NC(=O)[C@H](C)NC(=O)[C@H](C)NC(=O)[C@H](CCC(N)=O)NC(=O)[C@H](CCCCN)NC(=O)[C@H](CC(=O)O)NC(=O)[C@H](CC(C)C)NC(=O)[C@H](Cc1ccc(O)cc1)NC(=O)[C@@H](NC(=O)[C@H](CO)NC(=O)[C@H](Cc1ccc(O)cc1)NC(=O)[C@H](CC(=O)O)NC(=O)[C@H](CO)NC(=O)[C@@H](NC(=O)[C@H](Cc1ccccc1)NC(=O)[C@@H](NC(=O)CNC(=O)[C@H](CCC(=O)O)NC(=O)CSCC(=O)NCCN1C(=O)C[C@@H](O)C1=O)[C@@H](C)O)[C@@H](C)O)[C@@H](C)CC)C(C)C)C(N)=O)C(=O)O` [Compound 79], for which the EC50 is 0.1 to 1 nM in assay [1] (EC50 GLP-1R/nM, Table 3); 0.1 to 1 nM in assay [1] (EC50 GLP-1R/nM, Table 3A); 0.1 to 1 nM in assay [2] (EC50 GIP-R/nM, Table 3); 0.1 to 1 nM in assay [2] (EC50 GIP-R/nM, Table 3A); above 1000 nM in assay [4]. Further, the Emax was found to be 102% in assay [1] (Table 3), 102% in assay [1] (Table 3A), 77% in assay [2] (Table 3) and 77% in assay [2] (Table 3A). Moreover, in assay [3] (dose range 5.1-15 nmol/kg), the AUC score is reported as 2 (AUC score 2 = 26-50%).

For the compound `CCCCCCCCCCCCCCCC(=O)N[C@@H](CCC(=O)NCCCC[C@H](NC(=O)[C@H](CO)NC(=O)[C@@H]1CCCN1C(=O)[C@@H]1CCCN1C(=O)[C@@H]1CCCN1C(=O)[C@H](C)NC(=O)CNC(=O)[C@H](CO)NC(=O)[C@H](CO)NC(=O)[C@@H]1CCCN1C(=O)CNC(=O)CNC(=O)[C@H](C)NC(=O)[C@H](CC(C)C)NC(=O)[C@H](CC(C)C)NC(=O)[C@H](Cc1c[nH]c2ccccc12)NC(=O)[C@H](CC(N)=O)NC(=O)[C@@H](NC(=O)[C@H](Cc1ccccc1)NC(=O)[C@H](CCC(=O)O)NC(=O)C(C)(C)NC(=O)[C@H](C)NC(=O)[C@H](C)NC(=O)[C@H](CCC(N)=O)NC(=O)[C@H](CCCCN)NC(=O)[C@H](CC(=O)O)NC(=O)[C@H](CC(C)C)NC(=O)[C@H](Cc1ccc(O)cc1)NC(=O)[C@@H](NC(=O)[C@H](CO)NC(=O)[C@H](Cc1ccc(O)cc1)NC(=O)[C@H](CC(=O)O)NC(=O)[C@H](CO)NC(=O)[C@@H](NC(=O)[C@H](Cc1ccccc1)NC(=O)[C@@H](NC(=O)CNC(=O)[C@H](CCC(=O)O)NC(=O)CSCC(=O)NCCN1CC[C@H](O)C1=O)[C@@H](C)O)[C@@H](C)O)[C@@H](C)CC)C(C)C)C(N)=O)C(=O)O` [Compound 66], the Emax in assay [1] (Table 3) turned out to be 113%; in assay [1] (Table 3A) it was 113%; in assay [2] (Table 3) it was 11%; in assay [2] (Table 3A) it was 11%. Also, the EC50 in assay [1] (setting [5]) was below 0.1 nM; in assay [1] (setting [6]), below 0.1 nM; in assay [2] (setting [7]), 1 to 10 nM; in assay [2] (setting [8]) it was 100 to 1000 nM; in assay [4] (setting [9]), above 1000 nM. Besides, in assay [3] (dose range 2-5 nmol/kg), the AUC score is 2 (AUC score 2 = 26-50%).

As for `CCCCCCCCCCCCCCCC(=O)N[C@@H](CCC(=O)NCCCC[C@H](NC(=O)[C@H](CO)NC(=O)[C@@H]1CCCN1C(=O)[C@@H]1CCCN1C(=O)[C@@H]1CCCN1C(=O)[C@H](C)NC(=O)CNC(=O)[C@H](CO)NC(=O)[C@H](CO)NC(=O)[C@@H]1CCCN1C(=O)CNC(=O)CNC(=O)[C@H](C)NC(=O)[C@H](CC(C)C)NC(=O)[C@H](CC(C)C)NC(=O)[C@H](Cc1c[nH]c2ccccc12)NC(=O)[C@H](CC(N)=O)NC(=O)[C@@H](NC(=O)[C@H](Cc1ccccc1)NC(=O)[C@H](CCC(=O)O)NC(=O)C(C)(C)NC(=O)[C@H](C)NC(=O)[C@H](C)NC(=O)[C@H](CCC(N)=O)NC(=O)[C@H](CCCCN)NC(=O)[C@H](CC(=O)O)NC(=O)[C@H](CC(C)C)NC(=O)[C@H](Cc1ccc(O)cc1)NC(=O)[C@@H](NC(=O)[C@H](CO)NC(=O)[C@H](Cc1ccc(O)cc1)NC(=O)[C@H](CC(=O)O)NC(=O)[C@H](CO)NC(=O)[C@@H](NC(=O)[C@H](Cc1ccccc1)NC(=O)[C@@H](NC(=O)CNC(=O)[C@H](CCC(=O)O)NC(=O)CSCC(=O)NCCN1CCCCCC1=O)[C@@H](C)O)[C@@H](C)O)[C@@H](C)CC)C(C)C)C(N)=O)C(=O)O` [Compound 41], the EC50 in assay [1] (EC50 GLP-1R/nM, Table 3) was 0.1 to 1 nM; in assay [1] (EC50 GLP-1R/nM, Table 3A), 0.1 to 1 nM; in assay [2] (EC50 GIP-R/nM, Table 3) it was 1 to 10 nM; in assay [2] (EC50 GIP-R/nM, Table 3A), 1 to 10 nM; in assay [4] it was above 1000 nM. In addition, the Emax is 100 to 104% in assay [1] (Table 3), 100 to 104% in assay [1] (Table 3A), 75% in assay [2] (Table 3) and 75% in assay [2] (Table 3A). The AUC score in assay [3] (dose range 2-5 nmol/kg) is reported as 4 (AUC score 4 = 76-100%).
